Laboratory results published in patent US20020183377A1 (priority 1999, published 2002).
Where “and” joins values, the source holds several entries; their conditions need not be identical. Equal entries are not always repeated.

Columns and labels:
[1] = tested on: alopecia in men; conditions: cited from earlier work
[2] = tested on: postmenopausal women; conditions: unpublished data; cited from earlier work
[3] = tested on: hair follicles of the cashmere goat; conditions: cited from earlier work
[4] = tested on: female patients having diffuse or androgenetic, non-epulotic alopecia; experiment: Hair shaft measurements (diameter, breaking force, breaking distance) in the same study; assay type: in vivo, human; conditions: for power of resistance of hair: frontal hair
From the text: The treatment period was 6 months. […] From the hair samples obtained for the trichogram, frontally and occipitally at least 10 hairs in each case were used for the hair shaft measurements. These samples were investigated before the beginning of the preparation application and after 3 and 6 months' treatment. For the measurement of the diameter and of the mechanical properties of the hair, 5 hairs from the frontal and occipital taking region of the trichograms were in each case used. For the measurement of the force which had to be used in order to break the hair, the hairs were first stretched, by means of a computer-controlled measuring and control unit at a constant force (Newton), to breaking point. In a manner analagous to the determination of the breaking force, it was possible to determine the stretching distance up to the breaking point by means of the measuring unit. The stretching distance was measured in mm.

[5] = tested on: female patients having diffuse or androgenetic, non-epulotic alopecia; experiment: Trichograms (anagenic, telogenic, dystrophic hair rates) in randomized placebo-controlled double-blind study; assay type: in vivo, human; conditions: for telogenic rate, frontal trichogram / anagenic rate, frontal trichogram / anagenic rate, occipital trichogram / telogenic rate, occipital trichogram: all patients
Procedure: The trial was carried out as a randomized, placebo-controlled double-blind study on 40 female patients having diffuse or androgenetic, non-epulotic alopecia, who, after clarification, declared themselves willing to participate in the investigation. […] The treatment period was 6 months. […] 40 women of 20 to 70 years of age with healthy skin and good general health and having androgenetic or diffuse alopecia were tested. Care was taken that none of the women were pregnant or lactating, there was no dermatological local therapy on the scalp and no epulotic alopecia was present. Furthermore, no hair-cosmetic measures were carried out during the study. […] For the investigation of the […] telogenic rates, trichograms were prepared. In this procedure, 5 days in each case after the last hair wash 30 to 50 hairs were obtained frontally approximately 2 cm from the forehead/hair boundary and laterally from the sagittal line in a standardized manner by epilation using a special […]. A 2nd epilation was taken occipitally 2 cm laterally of the protuberantia occipitalis. The trichograms were carried out before the beginning of the study, and after 3 and 6 months' treatment. The hair roots obtained were mounted on slides, analogously counted by means of a light microscope at 20-times magnification and the percentage ratios of the […], telogenic and dystrophic hairs were calculated. All the individual data from the trichogram investigations, the hair shaft measurements and the melatonin measurements were recorded in Microsoft Excel and mean values and standard deviations were calculated. The statistical analysis of the measured values at the various points in time in the two treatment groups was carried out by the SPSS statistics program.

[6] = tested on: female patients having diffuse or androgenetic, non-epulotic alopecia; experiment: Patient questionnaire (success of therapy, side effects); assay type: in vivo, human
Procedure: Undesirable pharmaceutical side effects were determined by means of a patient questionnaire. At the end of the study, an additional termination questionnaire was filled in by the patients, in which they could express their views on the success of the therapy, on the chronological occurrence of side effects and on the administration form of the preparation.

[7] = tested on: hair follicle of goats; conditions: goats treated over 14 days, vs untreated goats; cited from earlier work
[8] = Toxicity and side effects of melatonin in humans (oral, topical); assay type: in vivo, human; conditions: topical application in a nanocolloid preparation and alcoholic solutions, over 60 subjects
From the text: Although the mechanisms of the action of melatonin are still not comprehensively clarified in detail, melatonin appears to control the adaptation of the organism to environmental stimuli, in particular light and temperature.

[9] = patients treated with melatonin
[10] = drug group n=14, starting value
[11] = drug group, end of 6-month study
[12] = drug group, under topical treatment

## CC(C)(C)NC(=O)[C@H]1CC[C@H]2[C@@H]3CC[C@H]4NC(=O)C=C[C@]4(C)[C@H]3CC[C@]12C [finasteride]
[1]
  cases with slight to marked improvement in the hair density: 66%
  cases with stopping of the hair loss: 80%
[2]
  efficacy compared with placebo: did not show any superior efficacy compared with placebo

## COc1ccc2[nH]cc(CCNC(C)=O)c2c1 [melatonin, N-acetyl-5-methoxytryptamine]
[3]; 24 hour interval
  melatonin concentration giving greater growth of the hair shafts than lower dose and control: ≥ 150 mg/mL
[3]; after 120 hours
  melatonin concentration with best growth rates and maximal total growth: 300 ng/L
[4]; drug group, diagnosis androgenetic alopecia
  patients with enlargement of the hair diameter, hair taken frontally: 67%
[4]; after 6 months' melatonin treatment
  power of resistance of hair: 0.61 N
[4]; melatonin treatment, before treatment
  power of resistance of hair: 0.56 N
[4]; occipital hair, diffuse alopecia, melatonin
  patients with improvements of occipital hair parameters, group having diffuse alopecia: 86%
[4]; [9]
  patients with enlargement of the hair diameter, hair taken occipitally: 55%
  patients with increase in the stretching force, hair taken occipitally: 70%
[5]; drug group n=6, after treatment
  anagenic rate, occipital trichogram, androgenetic alopecia: 87.8%
[5]; drug group n=6, month 3
  telogenic rate, occipital trichogram, androgenetic alopecia: 18.3%
[5]; drug group n=6, month 6, p≦0.035 vs starting result
  telogenic rate, occipital trichogram, androgenetic alopecia: 10.8%
[5]; drug group n=6, starting value
  anagenic rate, occipital trichogram, androgenetic alopecia: 73.6%
  telogenic rate, occipital trichogram, androgenetic alopecia: 26.5%
[5]; drug group n=14, after treatment
  telogenic rate, occipital trichogram, diffuse alopecia: 13.2%
[5]; drug group n=14, after treatment, p=0,02 vs placebo for increase
  anagenic rate, occipital trichogram, diffuse alopecia: 83.7%
[5]; [10]
  anagenic rate, occipital trichogram, diffuse alopecia: 77.4%
  telogenic rate, occipital trichogram, diffuse alopecia: 21.6%
[5]; drug group, after 3 months
  telogenic rate, frontal trichogram: 16.8%
[5]; drug group, after 6 months
  telogenic rate, frontal trichogram: 15.9%
[5]; drug group, after treatment with 0.1% melatonin spray (time not given; 6-month study)
  anagenic rate, frontal trichogram: 82.6%
[5]; drug group, month 3
  anagenic rate, occipital trichogram: 78.8%
  telogenic rate, occipital trichogram: 18.1%
[5]; drug group, month 6, p≦0.021 vs starting result
  anagenic rate, occipital trichogram: 85%
[5]; drug group, month 6, p≦0.048 vs month 3, p≦0.005 over 6 months
  telogenic rate, occipital trichogram: 12.5%
[5]; drug group, starting value
  anagenic rate, occipital trichogram: 76.3%
  telogenic rate, frontal trichogram: 18.9%
[5]; drug group, starting value (month 1)
  telogenic rate, occipital trichogram: 23.03% and 23%
[5]; drug group, starting value before therapy
  anagenic rate, frontal trichogram: 80.4%
[5]; drug group, frontal
  differences in frontal anagenic and telogenic rates after 3 and 6 months compared with starting values: not significant
[5]; dystrophic hair always in the normal range
  harmful actions of the preparation on the physiological hair root (dystrophic hair rate): no harmful actions
[6]; [11]
  patients in whom the hair loss had stopped: 23%
  patients in whom the hair loss had worsened: 8%
  patients stating that the hair loss had improved: 69%
[6]; topical application to the scalp, 6 months
  occurrence of tiredness compared with the placebo group: no increased occurrence of tiredness
[7]
  effect on hair follicles (histology of skin biopsies): induction of hair growth by changeover of the hair follicle from the telogenic phase to the proanagenic phase
6 months' topical treatment
  accumulation in the melatonin serum level: did not occur
[12]
  melatonin plasma level versus physiological night level (not exceeded): ≤ 250 pg/ml
  melatonin plasma level, individual peak values: 180 pg/mL
[8]
  local or systemic side effects: no local or systemic side effects
